Experiments:
mitochondrial potential = assay: Decrease in mitochondrial potential; type: cell-based; settings: 5 μM, within 1 h
oestrogen receptor ERα = assay: ERα expression by real-time PCR; type: cell-based; settings: 1 μM
mitochondrial complex I = assay: Respiration via mitochondrial complexes I and II, Oxygraf; type: cell-based, human; settings: MCF7 cells, respiration at increasing doses
Excerpt: Respiration (oxygen consumption linked with ATP formation) is related to 10^6 cells and is shown as a relative value with the beginning level of respiration marked with the relative value of 1.

MCF7HER2− = settings: FIG. 4, survival, crystal violet
Protocol: MitoTAX prepared according to Example 6 was tested for its effect on breast cancer cell lines. Lines with different levels of HER2 protein expression and oestrogen receptor α. (ERα) were used. The cell line MCF7 features a relatively low expression of the HER2 protein. For the testing of killing of breast cancer cells with different HER2 protein levels by MitoTAX, we prepared HER2^− and HER^+ MCF7 cells. MCF7 cells were transfected with the vector with a ‘non-silencing’ sequence (NS), with a ‘short hairpin’ sequence attenuating the expression of HER2 (sh) and with the vector with a gene for HER2. […] In the subsequent work, the sublines NS, Sh1 26 (clone 26) and +11 (clone 11) were used.
The individual values were determined from the survival curves of cells at various concentrations of both substances using the crystal violet method.

[1] = tested on: MCF7 sublines differing in HER2 levels; assay: Formation of reactive oxygen species (ROS); type: cell-based, human; settings: 5 μM, 1 h exposure
Excerpt: A property typically associated a number of mitocans is their ability to increase oxidative stress (formation of reactive oxygen species, ROS), selectively in cancer cells, especially associated with their action on mitochondrial complexes participating with oxidative phosphorylation. […] We tested formation of ROS also for MitoTAX.

## N#CC(C#N)=NNc1cccc(Cl)c1 [CCCP]
Mitochondrial potential
  reduction of mitochondrial potential: reduces the mitochondrial potential to its basal value

## CC/C(=C(\c1ccccc1)c1ccc(OCCN(C)C)cc1)c1ccccc1 [TAX, tamoxifen]
Oestrogen receptor ERα
  reduction of ERα expression: ineffective
Mitochondrial complex I
  concentration at which complex I is inhibited preferably to complex II: exceeding 20 μM
MCF7HER2−
  response of line with reduced HER2 expression (clone 26): exactly opposite
[1]
  generation of ROS: markedly less effective
